Data set [1] addresses baculovirus-expressed ALK (Homo sapiens, UniProt Q9UM73). Put plainly: ALK Kinase Assay (ELISA/TRF, PLC-γ substrate). Further: 1 µM ATP (Km level). In kind it is biochemical. The conditions noted are these: read-out: ALK Kinase Inhibition (IC50). The procedure, abridged:
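IC50 values fitted by nonlinear sigmoidal regression (variable slope) of percent inhibition against log compound concentration. Read-out was TRF of Eu-N1 anti-phosphotyrosine antibody bound to phosphorylated, plate-coated GST-PLC-γ (10 µg/mL). Kinase reaction used ALK at 30 ng/ml for 15 min at 37 °C.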
In general terms: ELISA stands for enzyme-linked immunosorbent assay.

The target of data set [2] is T1, c-Met (cytoplasmic domain) (Homo sapiens, UniProt P08581).
T1 construct: Reactions were initiated with 30 ng/mL c-Met (cytoplasmic domain, Invitrogen Corporation #PV3143); purchased Invitrogen Corporation PV3143
Put plainly: c-Met Kinase Assay (ELISA/TRF, PLC-γ substrate). The settings on record: 3 μM ATP (Km level); read-out: c-Met Kinase Inhibition (IC50). In kind it is biochemical. In short, it runs like this: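 Readout is TRF of europium anti-phosphotyrosine (PT66) bound to GST–PLC-γ substrate coated at 10 μg/mL, after a 15 min, 37 °C reaction started with 30 ng/mL c-Met cytoplasmic domain. Percent inhibition plotted against log compound concentration and fitted (variable slope) for IC50.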

Data on 28 compounds can be found in US7601716B2, “Pyridopyrazines and derivatives thereof as ALK and c-Met inhibitors” (Cephalon, Inc., priority 2006, dated 2009).

By melting point is commonly meant the temperature, or range, at which the solid turns liquid. One may read the IC50 as the midpoint of a concentration-inhibition curve.

T1 sequence (P08581 956-1390 limits assumed): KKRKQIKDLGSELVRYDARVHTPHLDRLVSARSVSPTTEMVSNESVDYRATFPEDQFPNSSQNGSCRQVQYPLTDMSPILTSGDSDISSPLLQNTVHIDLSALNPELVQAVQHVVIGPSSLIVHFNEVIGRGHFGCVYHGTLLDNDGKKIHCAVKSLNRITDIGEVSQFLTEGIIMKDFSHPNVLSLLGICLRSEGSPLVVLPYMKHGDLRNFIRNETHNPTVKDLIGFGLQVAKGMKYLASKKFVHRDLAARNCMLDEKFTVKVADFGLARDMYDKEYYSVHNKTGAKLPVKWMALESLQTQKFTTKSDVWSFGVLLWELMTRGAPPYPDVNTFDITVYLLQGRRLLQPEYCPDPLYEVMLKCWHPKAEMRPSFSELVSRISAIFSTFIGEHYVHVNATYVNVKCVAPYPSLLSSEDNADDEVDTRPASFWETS
Sequence of baculovirus-expressed ALK (Q9UM73 19-1620): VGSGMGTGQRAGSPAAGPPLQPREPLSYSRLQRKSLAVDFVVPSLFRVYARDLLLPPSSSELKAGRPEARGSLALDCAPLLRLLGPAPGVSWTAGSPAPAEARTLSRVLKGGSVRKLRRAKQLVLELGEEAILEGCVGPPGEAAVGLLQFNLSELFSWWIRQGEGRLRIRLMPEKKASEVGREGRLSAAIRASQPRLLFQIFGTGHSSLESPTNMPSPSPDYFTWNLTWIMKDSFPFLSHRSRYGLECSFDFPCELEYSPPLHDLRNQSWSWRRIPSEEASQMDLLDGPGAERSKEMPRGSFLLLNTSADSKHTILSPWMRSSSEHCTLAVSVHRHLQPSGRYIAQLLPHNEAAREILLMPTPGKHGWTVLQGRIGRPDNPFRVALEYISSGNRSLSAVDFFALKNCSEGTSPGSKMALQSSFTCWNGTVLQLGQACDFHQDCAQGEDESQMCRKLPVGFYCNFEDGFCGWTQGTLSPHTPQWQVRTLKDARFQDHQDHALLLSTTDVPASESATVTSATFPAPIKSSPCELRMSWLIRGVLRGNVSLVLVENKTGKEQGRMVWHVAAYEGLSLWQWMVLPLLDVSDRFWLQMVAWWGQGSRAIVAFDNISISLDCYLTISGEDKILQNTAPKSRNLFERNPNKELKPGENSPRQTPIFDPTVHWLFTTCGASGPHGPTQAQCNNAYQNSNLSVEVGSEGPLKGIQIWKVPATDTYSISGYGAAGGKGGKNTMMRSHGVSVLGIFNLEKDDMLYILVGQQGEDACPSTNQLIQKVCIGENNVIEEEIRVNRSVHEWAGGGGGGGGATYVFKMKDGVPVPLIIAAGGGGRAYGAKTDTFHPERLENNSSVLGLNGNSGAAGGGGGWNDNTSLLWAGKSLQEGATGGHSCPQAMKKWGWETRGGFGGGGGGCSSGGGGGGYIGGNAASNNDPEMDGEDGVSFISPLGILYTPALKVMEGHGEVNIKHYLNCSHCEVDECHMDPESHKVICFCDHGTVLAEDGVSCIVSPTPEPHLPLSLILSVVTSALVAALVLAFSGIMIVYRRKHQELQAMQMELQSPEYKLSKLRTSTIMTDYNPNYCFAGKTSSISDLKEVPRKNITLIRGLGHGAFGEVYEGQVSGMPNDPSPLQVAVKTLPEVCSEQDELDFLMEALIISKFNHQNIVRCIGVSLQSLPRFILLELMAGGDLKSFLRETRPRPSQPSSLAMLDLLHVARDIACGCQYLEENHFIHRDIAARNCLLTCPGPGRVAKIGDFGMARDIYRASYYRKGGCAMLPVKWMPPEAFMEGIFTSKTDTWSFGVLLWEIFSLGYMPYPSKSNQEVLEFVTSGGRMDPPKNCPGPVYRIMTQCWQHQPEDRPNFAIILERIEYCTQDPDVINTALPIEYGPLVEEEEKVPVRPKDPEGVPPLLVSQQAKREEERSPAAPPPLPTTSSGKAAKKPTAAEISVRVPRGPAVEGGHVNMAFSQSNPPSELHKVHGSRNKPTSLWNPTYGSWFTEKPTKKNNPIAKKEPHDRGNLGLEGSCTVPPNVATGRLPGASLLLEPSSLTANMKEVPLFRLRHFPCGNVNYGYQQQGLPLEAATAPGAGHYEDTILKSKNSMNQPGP

`O=C1CNc2ncc(-c3cccnc3)cc2N1Cc1ccccc1` [Example 11, 1-Benzyl-7-pyridin-3-yl-3,4-dihydro-1H-pyrido[2,3-b]pyrazin-2-one] registered a melting point of 58 °C. In addition, the IC50 in data set [1] was 10 to 100 µM. The IC50 in data set [2] lay in the range of 10 to 100 µM.

In the case of `CN(C)CCCCCCNC(=O)c1ccc(-c2cnc3c(c2)N(Cc2ccccc2)C(=O)CN3)cc1` [Example 16, 4-(1-benzyl-2-oxo-1,2,3,4-tetrahydropyrido[2,3-b]pyrazin-7-yl)-N-(6-dimethylaminohexyl)benzamide], the melting point was > 200 °C. In addition, the IC50 in data set [1] lay in the range of 1 to 10 µM. Moreover, the IC50 in data set [2] was 10 to 100 µM.

On to `O=C1CNc2ncc(I)cc2N1Cc1ccccc1` [Example 8, 1-Benzyl-7-iodo-3,4-dihydro-1H-pyrido[2,3-b]pyrazin-2-one], for which the melting point amounted to 225 °C. Moreover, the IC50 in data set [1] is 10 to 100 µM. Besides, the IC50 in data set [2] was > 100 µM.

Regarding `O=C1CNc2ncc(I)cc2N1Cc1cc(F)c(F)cc1F` [Example 81, 7-Iodo-1-(2,4,5-trifluorobenzyl)-3,4-dihydro-1H-pyrido[2,3-b]pyrazin-2-one], the melting point was in the range of 227 to 228 °C. Besides, the IC50 in data set [1] is > 100 µM. The concentration for half-maximal inhibition (IC50) in data set [2] was > 100 µM.

Turning to `O=S(=O)(c1ccccc1Cl)N1CCNc2ncc(I)cc21` [Example 124, 1-(2-Chlorobenzenesulfonyl)-7-iodo-1,2,3,4-tetrahydropyrido[2,3-b]pyrazine], the melting point lay within 146 to 147 °C. For the same compound, the IC50 in data set [1] fell in the range of 1 to 10 µM. In addition, in data set [2], the IC50 is 10 to 100 µM.

Consider `O=C(Cc1cc(F)ccc1F)N1CCNc2ncc(I)cc21` [Example 112, 2-(2,5-Difluorophenyl)-1-(7-iodo-3,4-dihydro-2H-pyrido[2,3-b]pyrazin-1-yl)ethanone], for which the melting point fell in the range of 152 to 153 °C. In addition, the IC50 in data set [1] lay within 10 to 100 µM. In data set [2], the IC50 fell in the range of 10 to 100 µM.

The compound `Fc1ccc(F)c(/C=C2/CCNc3nc(Br)ccc32)c1` [Example 283, 7-Bromo-4-[1-(2,5-difluorophenyl)methylidene]-1,2,3,4-tetrahydro-[1,8]naphthyridine] gave a melting point of 178 to 179 °C. Further, the IC50 in data set [1] is > 100 µM. Besides, in data set [2], the IC50 was > 100 µM.

Consider `CCOC(=O)c1cccc(-c2cnc3c(c2)N(Cc2cc(Cl)ccc2C(F)(F)F)CCN3)c1` [Example 194, 3-{1-[5-Chloro-2-(trifluoromethyl)benzyl]-1,2,3,4-tetrahydropyrido[2,3-b]pyrazin-7-yl}benzoic acid ethyl ester], for which the melting point is 174 °C. Besides, the IC50 in data set [1] is 0.1 to 1 µM. Moreover, the IC50 in data set [2] was > 100 µM.

Consider `CN1CCN(c2ccc(-c3cnc4c(c3)N(C(=O)Cc3cc(F)ccc3F)CCN4)cn2)CC1` [Example 113], for which the melting point was > 300 °C. Moreover, the IC50 in data set [1] lay in the range of 1 to 10 µM. The IC50 in data set [2] fell in the range of 10 to 100 µM.

In turn, `CN(C)CCNC(=O)c1ccc(-c2cnc3c(c2)N(C(=O)c2ccccc2)CCN3)cc1` [Example 52, 4-(1-Benzoyl-1,2,3,4-tetrahydropyrido[2,3-b]pyrazin-7-yl)-N-(2-dimethylamino-ethyl)benzamide] displayed a melting point of 145 to 147 °C. Also, in data set [1], the IC50 fell in the range of 10 to 100 µM. For the same compound, the IC50 in data set [2] lay within 10 to 100 µM.

`COC(=O)c1cccc(-c2cnc3c(c2)N(Cc2ccccc2)C(=O)CN3)c1` [Example 30, 3-(1-Benzyl-2-oxo-1,2,3,4-tetrahydropyrido[2,3-b]pyrazin-7-yl)benzoic acid methyl ester] returned a melting point of 211 °C. The IC50 in data set [1] was in the range of 1 to 10 µM. Further, the IC50 in data set [2] was 10 to 100 µM.

`CCOC(=O)c1ccc(-c2cnc3c(c2)N(Cc2ccccc2)C(=O)CN3)cc1` [Example 9, 4-(1-Benzyl-2-oxo-1,2,3,4-tetrahydropyrido[2,3-b]pyrazin-7-yl)benzoic acid ethyl ester] registered a melting point of 178 °C. For the same compound, the IC50 in data set [1] fell in the range of 10 to 100 µM. Besides, the IC50 in data set [2] is > 100 µM.

Compound `Clc1ccc(Cl)c(CN2CCNc3ncc(C4=CCNCC4)cc32)c1` [Example 131, 1-(2,5-Dichlorobenzyl)-7-(1,2,3,6-tetrahydropyridin-4-yl)-1,2,3,4-tetrahydropyrido[2,3-b]pyrazine] yielded a melting point of 133 to 136 °C. Besides, in data set [1], the IC50 lay in the range of 1 to 10 µM. Besides, the half-maximal inhibitory concentration (IC50) in data set [2] lay within 1 to 10 µM.

Take `FC(F)(F)c1ccc(Cl)cc1CN1CCNc2ncc(I)cc21` [Example 115, 1-(5-Chloro-2-trifluoromethylbenzyl)-7-iodo-1,2,3,4-tetrahydropyrido[2,3-b]pyrazine]: the melting point was in the range of 189 to 191 °C. Besides, the IC50 in data set [1] lay within 1 to 10 µM. Besides, the IC50 in data set [2] was > 100 µM.

With `Fc1ccc(F)c(CN2CCNc3ncc(-c4cnc(N5CCOCC5)nc4)cc32)c1Cl` [Example 107, 1-(2-Chloro-3,6-difluorobenzyl)-7-(2-morpholin-4-yl-pyrimidin-5-yl)-1,2,3,4-tetrahydropyrido[2,3-b]pyrazine], the melting point lay within 250 to 251 °C. Moreover, the IC50 in data set [1] is < 0.1 µM. The concentration for half-maximal inhibition (IC50) in data set [2] was in the range of 10 to 100 µM.

Take `O=C(O)c1ccc(-c2cnc3c(c2)N(Cc2c(Cl)cccc2Cl)C(=O)CN3)cc1` [Example 140, 4-[1-(2,6-Dichlorobenzyl)-2-oxo-1,2,3,4-tetrahydropyrido[2,3-b]pyrazin-7-yl]benzoic acid]: the melting point was > 200 °C. In addition, in data set [1], the IC50 is 1 to 10 µM. Besides, the IC50 in data set [2] lay within 1 to 10 µM.

Consider `O=C1CNc2ncc(I)cc2N1Cc1cc(Cl)ccc1Cl` [Example 155, 1-(2,5-Dichlorobenzyl)-7-iodo-3,4-dihydro-1H-pyrido[2,3-b]pyrazin-2-one], for which the melting point is > 200 °C. The IC50 in data set [1] was 10 to 100 µM. Also, in data set [2], the IC50 was > 100 µM.

For the compound `O=C1CNc2ncc(-c3cccnc3)cc2N1Cc1c(Cl)cccc1Cl` [Example 137, 1-(2,6-Dichlorobenzyl)-7-pyridin-3-yl-3,4-dihydro-1H-pyrido[2,3-b]pyrazin-2-one], the melting point was > 200 °C. Further, the IC50 in data set [1] lay in the range of 10 to 100 µM. Also, the IC50 in data set [2] is > 100 µM.

`O=C(c1ccc(-c2cnc3c(c2)N(Cc2ccccc2)CCN3)cc1)N1CCC(N2CCCC2)CC1` [Example 39, [4-(1-Benzyl-1,2,3,4-tetrahydropyrido[2,3-b]pyrazin-7-yl)phenyl]-(4-(pyrrolidin-1-yl)piperidin-1-yl)methanone] came in with a melting point of 120 °C. The IC50 in data set [1] was in the range of 1 to 10 µM. In data set [2], the IC50 lay within 10 to 100 µM.

The compound `Clc1cccc(OC2CCNc3ncc(-c4ccc(N5CCOCC5)cc4)cc32)c1` (stereo not drawn) [Example 280, 4-(3-Chlorophenoxy)-6-(4-morpholin-4-yl-phenyl)-1,2,3,4-tetrahydro-[1,8]naphthyridine] came in with a melting point of 124 to 126 °C. Also, in data set [1], the IC50 was 1 to 10 µM. Moreover, the IC50 in data set [2] was in the range of 10 to 100 µM.

Turning to `CCOC(=O)c1ccc(-c2cnc3c(c2)NC(=O)CN3)cc1` [Example 135, 4-(2-Oxo-1,2,3,4-tetrahydropyrido[2,3-b]pyrazin-7-yl)benzoic acid ethyl ester], the melting point was > 200 °C. In addition, the IC50 in data set [1] was > 100 µM. For the same compound, the concentration for half-maximal inhibition (IC50) in data set [2] is > 100 µM.

Compound `Cn1cc(-c2cnc3c(c2)N(Cc2cc(Cl)ccc2C(F)(F)F)CCN3)cn1` [Example 203, 1-[5-Chloro-2-(trifluoromethyl)benzyl]-7-(1-methyl-1H-pyrazol-4-yl)-1,2,3,4-tetrahydropyrido[2,3-b]pyrazine] displayed a melting point of 156 °C. Also, in data set [1], the IC50 was in the range of 0.1 to 1 µM. The IC50 in data set [2] was 1 to 10 µM.

Take `Fc1ccc(F)c(CN2CCNc3ncc(-c4ccc(N5CCOCC5)cc4)cc32)c1Cl` [Example 108, 1-(2-Chloro-3,6-difluorobenzyl)-7-(4-morpholin-4-yl-phenyl)-1,2,3,4-tetrahydropyrido[2,3-b]pyrazine]: the melting point is 217 to 219 °C. The IC50 in data set [1] was < 0.1 µM. The IC50 in data set [2] was 10 to 100 µM.

`O=C1CNc2ncc(I)cc2N1Cc1cc(C(F)(F)F)ccc1Cl` [Example 116, 1-(2-Chloro-5-trifluoromethylbenzyl)-7-iodo-3,4-dihydro-1H-pyrido[2,3-b]pyrazin-2-one] had a melting point of 252 to 253 °C. Besides, the IC50 in data set [1] lay in the range of 10 to 100 µM. The IC50 in data set [2] is > 100 µM.

The compound `CC(C)(C)OC(=O)N1CC=C(c2cnc3c(c2)N(Cc2cc(Cl)ccc2Cl)CCN3)CC1` [Example 130, 4-[1-(2,5-Dichlorobenzyl)-1,2,3,4-tetrahydropyrido[2,3-b]pyrazin-7-yl]-3,6-dihydro-2H-pyridine-1-carboxylic acid tert-butyl ester] registered a melting point of 92 to 95 °C. For the same compound, the IC50 in data set [1] was 1 to 10 µM. Moreover, the IC50 in data set [2] was in the range of 10 to 100 µM.

For the compound `O=C(O)c1cnc2c(c1)N(Cc1cc(Cl)ccc1Cl)CCN2` [Example 128, 1-(2,5-Dichlorobenzyl)-1,2,3,4-tetrahydropyrido[2,3-b]pyrazine-7-carboxylic acid], the melting point is 273 °C (dec.). In data set [1], the IC50 is > 100 µM. Further, in data set [2], the IC50 lay in the range of 10 to 100 µM.

On to `Fc1ccc(F)c(CN2CCNc3ncc(I)cc32)c1` [Example 62, 1-(2,5-Difluorobenzyl)-7-iodo-1,2,3,4-tetrahydropyrido[2,3-b]pyrazine], for which the melting point was 175 °C. For the same compound, in data set [1], the IC50 fell in the range of 1 to 10 µM. In data set [2], the IC50 was in the range of 10 to 100 µM.

As to `OC1CNc2ncc(I)cc2N1Cc1cc(F)ccc1C(F)(F)F` (stereo not drawn) [Example 134, 1-(5-Fluoro-2-trifluoromethylbenzyl)-7-iodo-1,2,3,4-tetrahydropyrido[2,3-b]pyrazin-2-ol], the melting point was 142 °C (dec.). For the same compound, in data set [1], the IC50 was in the range of 10 to 100 µM. Further, the IC50 in data set [2] lay in the range of 10 to 100 µM.
